The values below come from US9969775B2, “CGRP antagonist peptides” (Ferring B.V., priority 2015, dated 2018).

Assay [1] concerns the target T1, hCGRP receptor (CALCRL:RAMP1) (Homo sapiens, UniProt O60894+Q16602).
T1 construct: host or cells: GeneBLAzer CALCRL:RAMP1-CRE-bla Freestyle 293F
The experiment in a line: CGRP receptor antagonist activity measured by cAMP assay (HTRF). The following applies: for Emax: read-out: hCGRP-R Efficacy Antag (%) Ave; for IC50: GeneBLAzer CALCRL:RAMP1-CRE-bla Freestyle 293F cells, 30 minutes. In kind it is cell-based.

Assay [2] addresses T2, hAM2 receptor (CALCRL:RAMP3) (Homo sapiens, UniProt O60896+Q16602).
T2 construct: expressed in transfected cells; host or cells: GeneBLAzer CALCRL:RAMP3-CRE-bla Freestyle 293F
The experiment in a line: AM2 receptor antagonist activity measured by cAMP assay (HTRF). In kind it is cell-based. The following applies: for Emax: read-out: hAM2-R Efficacy Antag (%) Ave; for IC50: GeneBLAzer CALCRL:RAMP3-CRE-bla Freestyle 293F cells; for selectivity ratio CGRP/AM2: selectivity ratio for hCGRP over hAM2, calculated from the IC50 values.

[3] abbreviates: % MPE: percent of the maximal possible effect, agonist human α-CGRP.
[4] abbreviates: % MPE: percent of the maximal possible effect, agonist human adrenomedullin.

Read-outs that look alike come from different tables or passages of the source. Numbered stars: 1 amine (or outer) side, 2 acyl side, 3 side chain; on linkers, the order of the positions; unused ones are H or OH. Bridge positions count the residues as written; N and C are the ends. Square brackets hold non-standard residues; d marks the D form. Peptide text beside a SMILES is read from it. * marks the point of attachment. X5 = O=C([C@H](Cc1ccc(CO)cc1)N[*:1])[*:2]; Orn(iPr) = CC(C)NCCC[C@H](N)C(=O)O; Benzoyl(4-F) = O=C(c1ccc(F)cc1)*; Oxazole2carbonyl = O=C(c1ncco1)*; 3Pal = N[C@@H](Cc1cccnc1)C(=O)O; Agp = N=C(N)NC[C@H](N)C(=O)O; ΔPro = O=C(O)[C@@H]1C=CCN1; Dap = NC[C@H](N)C(=O)O; Bz = O=C(c1ccccc1)*

T1 sequence (Q16602 23-461): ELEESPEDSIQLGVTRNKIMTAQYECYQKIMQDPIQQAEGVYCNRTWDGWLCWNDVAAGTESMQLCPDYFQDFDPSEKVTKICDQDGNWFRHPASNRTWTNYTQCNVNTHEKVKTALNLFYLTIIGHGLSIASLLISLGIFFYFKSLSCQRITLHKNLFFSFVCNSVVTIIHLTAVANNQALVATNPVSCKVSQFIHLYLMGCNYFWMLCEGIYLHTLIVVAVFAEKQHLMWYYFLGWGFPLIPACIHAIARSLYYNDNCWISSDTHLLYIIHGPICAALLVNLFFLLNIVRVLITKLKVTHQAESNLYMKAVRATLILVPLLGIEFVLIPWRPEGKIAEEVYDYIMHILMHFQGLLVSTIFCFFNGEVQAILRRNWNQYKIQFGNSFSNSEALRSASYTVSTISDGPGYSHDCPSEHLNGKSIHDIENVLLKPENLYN
T1 sequence (O60894 27-148): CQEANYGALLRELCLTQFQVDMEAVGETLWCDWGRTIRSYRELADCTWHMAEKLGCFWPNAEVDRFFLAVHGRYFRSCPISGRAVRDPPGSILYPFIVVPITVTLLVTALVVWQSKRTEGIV
T2 sequence (Q16602 23-461): as the sequence (Q16602 23-461) above
T2 sequence (O60896 24-148): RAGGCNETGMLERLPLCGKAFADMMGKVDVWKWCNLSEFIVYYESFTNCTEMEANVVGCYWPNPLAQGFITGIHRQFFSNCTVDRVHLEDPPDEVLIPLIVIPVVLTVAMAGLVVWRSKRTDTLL

As for `CC(C)NCCC[C@@H]1NC(=O)[C@@H](NC(=O)[C@H](Cc2ccc(O)cc2)NC(=O)[C@H](NC(=O)c2ncco2)C(C)C)CSSC[C@@H](C(=O)N[C@@H](Cc2cccnc2)C(N)=O)NC(=O)[C@H](Cc2ccc(CO)cc2)NC(=O)[C@@H]2C=CCN2C(=O)CNC(=O)[C@H](C(C)C)NC(=O)[C@H](CC(=O)O)NC1=O` [Compound 70, Oxazole-2-carbonyl-D-Val-Tyr-c(Cys-Orn(iPr)-Asp-Val-Gly-Dhp-Phe(4-CH2OH)-Cys)-3Pal-NH2] (Oxazole2carbonyl-[dV]YC[Orn(iPr)]DVG[ΔPro][X5]C[3Pal]-NH2; disulfide 3-10), the Emax in assay [1] (setting [3]) and in assay [2] (setting [4]) was 100% throughout. The IC50 in assay [1] (agonist human α-CGRP, read-out: hCGRP-R IC50 Ave) is 0.15 nM; in assay [2] (agonist human adrenomedullin, read-out: hAM2-R IC50 Ave), 107 nM. Besides, the “selectivity ratio CGRP/AM2” value in assay [2] is 727.
Take `CC(C)[C@@H]1NC(=O)[C@H](CC(=O)O)NC(=O)[C@H](CNC(=N)N)NC(=O)[C@@H](NC(=O)[C@H](Cc2ccc(O)cc2)NC(=O)[C@H](NC(=O)c2ccc(F)cc2)C(C)C)CSSC[C@@H](C(=O)N[C@@H](Cc2cccnc2)C(N)=O)NC(=O)[C@H](Cc2ccccc2)NC(=O)[C@@H]2CCCN2C(=O)CNC1=O` [Ref. Cpd. 1, Bz(4-F)-D-Val-Tyr-c(Cys-Agp-Asp-Val-Gly-Pro-Phe-Cys)-3Pal-NH2, reference compound] ({Benzoyl(4-F)}-[dV]YC[Agp]DVGPFC[3Pal]-NH2; disulfide 3-10): the Emax was 100% in assay [1] (setting [3]) and 98% in assay [2] (setting [4]).
For `CC(C)[C@@H]1NC(=O)[C@H](CC(=O)O)NC(=O)[C@H](CN)NC(=O)[C@@H](NC(=O)[C@H](Cc2ccc(O)cc2)NC(=O)[C@H](NC(=O)c2ccccc2)C(C)C)CSSC[C@@H](C(=O)N[C@@H](Cc2cccnc2)C(N)=O)NC(=O)[C@H](Cc2ccccc2)NC(=O)[C@@H]2CCCN2C(=O)CNC1=O` [Ref. Cpd. 2, Bz-D-Val-Tyr-c(Cys-Dpr-Asp-Val-Gly-Pro-Phe-Cys)-3Pal-NH2, reference compound] (Bz-[dV]YC[Dap]DVGPFC[3Pal]-NH2; disulfide 3-10), the IC50 was 0.52 nM in assay [1] (hCGRP-R IC50 Ave, agonist human α-CGRP) and 200 nM in assay [2] (hAM2-R IC50 Ave, agonist human adrenomedullin). Also, the Emax in assay [1] and in assay [2] was 100% in each case. The “selectivity ratio CGRP/AM2” value in assay [2] was 387.
